Results: patent publication US20220356170A1, “SREBP INHIBITOR COMPRISING A THIOPHENE CENTRAL RING” (Capulus Therapeutics, LLC, priority 2019, published 2022)

Assays:
[1] = In vitro % Fu, human plasma; type: in vitro ADME; conditions: read-out: In Vitro % Fu (Hu Plasma)
[2] = test system: SREBP Target Gene in HepG2 cells; test: Q-PCR analysis of SREBP target gene expression; type: cell-based; conditions: 500 nM, 48 hour
Protocol: The effect of Compound 1 on the gene expression of HepG2 cells was evaluated.
HepG2 cells (P2) were seeded in 24 well plate (80,000 cells/ well) for RNA extraction and in a 96 well plate (10,000 cells/ well) for Cell Titer Glow (CTG). The media used was DMEM and contained 10% FBS. Compound 1 was evaluated at […] for 48 hours. Two biological replicates per experimental group were evaluated for RNA, and 3 biological replicates per experimental group analyzed with CTG.
For gene analysis RNA was harvested with RNEasy kit and 20-100 ng used to synthesize cDNA with random primers. Quantitative PCR was performed on 1 pg to 100 ng cDNA for the following genes: ACACA, ACLY, FASN, LSS, PNPLA3. Gene expression levels were determined using […] comparing treated to mock or vehicle treated cells as a baseline.

[3] = In vitro % Fu, mouse plasma; type: in vitro ADME; conditions: read-out: In Vitro % Fu (Mo Plasma)
[4] = Half-life in human liver microsomes; type: in vitro ADME; conditions: NADPH, 37° C., read-out: Human LM: Half life
Protocol: Half-life Human Microsomes: Compound 1 was evaluated for stability in human liver microsomes. A 10 mM stock solution of Compound 1 was prepared in DMSO and diluted with water: acetonitrile (1:1) to a concentration of 1 mM. A working concentration of 100 μM was prepared by further dilution with water: acetonitrile (1:1). To make the preincubation mixture, 2.5 μL of the diluted Compound 1 was combined with 75 μL of human liver microsomes at 3.33 mg/mL, and 85 μL of 100 mM potassium phosphate buffer, and this mixture pre-incubated for 10 min at 37° C. To make the 60 minute mixture without cofactor, 32.5 μL of the preincubation mixture was combined with 17.5 μL of 100 mM potassium phosphate buffer and incubated for 60 min at 37° C. To make the 0 min sample with cofactor (NADPH), 16.25 μL of the preincubation mixture was combined with 200 μL of acetonitrile containing internal standard and 8.75 μL of cofactor (NADPH). […] To prepare the sample mixture to be evaluated, 25 μL incubation mixture was combined with 200 μL of acetonitrile containing internal standard and vortexed for 5 min at 1200 rpm, then centrifuged for 10 min at 4000 rpm. […] The sample mixture was evaluated by LC-MS/MS using 10 mM ammonium acetate with 0.1% FA as the aqueous mobile phase, and methanol as the organic mobile phase.

[5] = treated compared to mock or vehicle treated cells as baseline

CC(C)(O)c1cc(-c2csc(-c3ccc(C(=O)N4CCC(O)CC4)cc3Cl)c2)ccn1 [Compound 1, (3-chloro-4-(4-(2-(2-hydroxypropan-2-yl)pyridin-4-yl)thiophen-2-yl)phenyl)(4-hydroxypiperidin-1-yl)methanone]
fraction unbound [1]: 0.026 | Total Gene Average ([2]; average of ACACA, ACLY, FASN, LSS, PNPLA3): 0.467 | ACACA gene expression (Q-PCR) [2, 5]: 0.648 | ACLY gene expression (Q-PCR) [2, 5]: 0.663 | FASN gene expression (Q-PCR) [2, 5]: 0.542 | LSS gene expression (Q-PCR) [2, 5]: 0.295 | PNPLA3 gene expression (Q-PCR) [2, 5]: 0.187 | fraction unbound [3]: 0.007 | half-life at 1 µM [4]: 1.08 h
